# According to patent US12613239B2, “Live imaging system to visualize the retro-transcribed viral DNA genome” (priority 2019, dated 2026):
# Where two headings read alike, the source gives them in different places.
# How the values were obtained:
# HIV-1 viral RNA = assay type: cell-based; details: 24 h
# viral CA = viral CA (Human immunodeficiency virus type 1 group M subtype B, UniProt P04591); details: cited from earlier work
# [1] = test system: HIV-1 CA and IN association; assay type: cell-based; details: 24 h
# [2] = test system: HIV-1 ANCH3 (HIV-1ΔEnvINHAΔNef ANCH3/VSV-G); assay type: cell-based
# [3] = test system: lentiviral particles pseudotyped with Spike from SARS-CoV2 (S-LV-ANCH3); assay type: cell-based
smiles,measurement,setting,value
Cc1[nH]c2ccccc2c1CC(=O)N[C@@H](Cc1ccccc1)C(=O)N(C)c1ccccc1 [PF74],Viral RNA of the incoming cores,HIV-1 viral RNA; high dose of PF74 (10 μM),completely degraded
same,Viral RNA of the incoming cores,HIV-1 viral RNA; low dose of PF74 (1.25 μM),not completely degraded
same,Mechanism at high concentration,viral CA,accelerates uncoating and blocks reverse transcription
same,Mechanism at low concentration,viral CA,directly competes with the binding of host viral partners
same,Association between CA and IN,[1]; high dose of PF74 (10 μM),lost
same,Association between CA and IN,[1]; low dose of PF74 (1.25 μM),preserved to levels comparable to samples without drug at 6 h post infection
same,Detection of viral DNA inside the nucleus,[2],detect the viral DNA inside the nucleus only in the absence of PF74
same,Viral nuclear entry,[2],blocked viral nuclear entry
CCN(CCO)CCCC(C)Nc1ccnc2cc(Cl)ccc12 (stereo not shown) [hydroxychloroquine],Viral entry of S-LV-ANCH3,[3],inhibit viral entry
"Cc1ccnc2c1NC(=O)c1cccnc1N2C1CC1 [NEV, nevirapine]",Intranuclear spots counted in 20 cells,[2],0 detections
